# Test results published in ChEMBL document CHEMBL1201862, “PubChem BioAssay data set” (2004).
#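 Following 48 hours of exposure in 96-well plates, responses at five concentrations were used to interpolate endpoints linearly. GI50 marks 50% less growth.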 Activity calls are given as the source filed them. Cut-off read from the data, not from the text of the source: active = GI50 up to about 1.1 µM and inactive = higher.
# Columns and labels:
# Assay in all cases: inhibition of tumour cell growth, NCI panel, 48 h
# DLD-1 = test system: DLD-1
# HCT-15 = test system: HCT-15
# HL-60 = test system: HL-60
# IGROV-1 = test system: IGROV-1
# LOX IMVI = test system: LOX IMVI
# NCI-H522 = test system: NCI-H522
# OVCAR-4 = test system: OVCAR-4
# 786-0 = test system: 786-0
# M14 = test system: M14
# SR = test system: SR
# MCF7 = test system: MCF7
# NCI/ADR-RES = test system: NCI/ADR-RES
# BT-549 = test system: BT-549
# DU-145 = test system: DU-145
# Hs-578T = test system: Hs-578T
# MDA-MB-231 = test system: MDA-MB-231
# MDA-MB-435 = test system: MDA-MB-435
# MDA-N = test system: MDA-N
# PC-3 = test system: PC-3
# T47D = test system: T47D
Compound,GI50 (DLD-1),GI50 (HCT-15) [µM],GI50 (HL-60),GI50 (IGROV-1),GI50 (LOX IMVI),GI50 (NCI-H522),GI50 (OVCAR-4),GI50 (786-0),GI50 (M14),GI50 (SR),GI50 (MCF7),GI50 (NCI/ADR-RES),GI50 (BT-549),GI50 (DU-145),GI50 (Hs-578T),GI50 (MDA-MB-231),GI50 (MDA-MB-435),GI50 (MDA-N),GI50 (PC-3),GI50 (T47D)
O=C1OC(c2ccc(Cl)cc2)(c2ccc(Cl)cc2)c2c1ccc1ccccc21,> 100 µM (inactive),> 100,8.69 µM (inactive),> 100 µM (inactive),> 100 µM (inactive),44.4 µM (inactive),> 100 µM (inactive),–,–,–,–,–,–,–,–,–,–,–,–,–
CCOC(=O)CC(NC(=O)c1ccc(/N=N/N(C)C)cc1)C(=O)OCC (centres undefined),> 100 µM (inactive),> 100,> 100 µM (inactive),> 100 µM (inactive),> 100 µM (inactive),> 100 µM (inactive),> 100 µM (inactive),> 100 µM (inactive),> 100 µM (inactive),> 100 µM (inactive),–,–,–,–,–,–,–,–,–,–
O=C1CN(c2ccccc2)C(=O)C1C(=O)Nc1ccc(Cl)c(Cl)c1 (centres undefined),5.08 µM (inactive),1.56,0.667 µM (active),2.33 µM (inactive),–,2.05 µM (inactive),11.7 µM (inactive),–,1.79 µM (inactive),0.581 µM (active),–,–,–,–,–,–,–,–,–,–
O=C1NC2(CCCCC2)C2CCCCCC12 (centres undefined),> 100 µM (inactive),> 100,> 100 µM (inactive),> 100 µM (inactive),> 100 µM (inactive),–,> 100 µM (inactive),–,> 100 µM (inactive),> 100 µM (inactive),–,–,–,–,–,–,–,–,–,–
CC1=NC(C(=O)O)Cc2c1[nH]c1ccccc21 (centres undefined),> 100 µM (inactive),> 100,> 100 µM (inactive),> 100 µM (inactive),> 100 µM (inactive),> 100 µM (inactive),–,–,> 100 µM (inactive),–,–,–,–,–,–,–,–,–,–,–
COc1cc2c(cc1OC)C(Cl)C(c1cc(OC)c(OC)c(OC)c1)=C2Cl (centres undefined),19.4 µM (inactive),14.6,13.6 µM (inactive),24 µM (inactive),13.1 µM (inactive),6.01 µM (inactive),–,–,17.2 µM (inactive),–,–,–,–,–,–,–,–,–,–,–
CC1(C)C2CCC3(OCCO3)C1C(O)C2 (centres undefined),> 100 µM (inactive),> 100,> 100 µM (inactive),> 100 µM (inactive),> 100 µM (inactive),> 100 µM (inactive),> 100 µM (inactive),> 100 µM (inactive),> 100 µM (inactive),–,–,–,–,–,–,–,–,–,–,–
COc1ccc(N2C(=O)C3C=CC(n4[nH]c(=O)n(Cc5ccccc5)c4=O)CC3C2=O)cc1 (centres undefined),> 100 µM (inactive),> 100,> 100 µM (inactive),> 100 µM (inactive),> 100 µM (inactive),> 100 µM (inactive),–,> 100 µM (inactive),> 100 µM (inactive),–,–,–,–,–,–,–,–,–,–,–
Cc1cc2c(C(C)C)c(O)c(O)c(/C=N/c3ccccc3)c2c(O)c1-c1c(C)cc2c(C(C)C)c(O)c(O)c(/C=N/c3ccccc3)c2c1O,> 100 µM (inactive),> 100,> 100 µM (inactive),> 100 µM (inactive),> 100 µM (inactive),> 100 µM (inactive),> 100 µM (inactive),–,> 100 µM (inactive),> 100 µM (inactive),–,–,–,–,–,–,–,–,–,–
COC(=O)c1cccc(C(=O)OC)c1,> 100 µM (inactive),> 100,> 100 µM (inactive),–,> 100 µM (inactive),> 100 µM (inactive),> 100 µM (inactive),–,> 100 µM (inactive),> 100 µM (inactive),–,–,–,–,–,–,–,–,–,–
CN(C)CCSc1nccc(-c2ccc(-c3ccnc(SCCN(C)C)n3)s2)n1,4.81 µM (inactive),4.65,2.37 µM (inactive),12.6 µM (inactive),3.42 µM (inactive),15.9 µM (inactive),4.13 µM (inactive),–,–,–,4.45 µM (inactive),4.91 µM (inactive),–,–,–,–,–,–,–,–
COc1nc(N)nc2nc[nH]c12,385 µM (inactive),445,383 µM (inactive),239 µM (inactive),381 µM (inactive),440 µM (inactive),479 µM (inactive),489 µM (inactive),478 µM (inactive),313 µM (inactive),490 µM (inactive),> 500 µM (inactive),232 µM (inactive),478 µM (inactive),416 µM (inactive),444 µM (inactive),> 500 µM (inactive),> 500 µM (inactive),466 µM (inactive),418 µM (inactive)
CCOC(=O)c1nc2cc(C(F)(F)F)ccc2nc1Oc1ccc(F)cc1,–,> 100,63.4 µM (inactive),> 100 µM (inactive),> 100 µM (inactive),> 100 µM (inactive),69.5 µM (inactive),> 100 µM (inactive),> 100 µM (inactive),> 100 µM (inactive),> 100 µM (inactive),> 100 µM (inactive),> 100 µM (inactive),> 100 µM (inactive),> 100 µM (inactive),> 100 µM (inactive),> 100 µM (inactive),> 100 µM (inactive),> 100 µM (inactive),5.9 µM (inactive)
